Results on one molecule are retold here after PMC6742646, “Extensive disruption of protein interactions by genetic variants across the allele frequency spectrum in human populations” (Nature Communications, 2019).

This experiment deals with T1, AKR7A2 (Homo sapiens, UniProt O43488).
T1 construct: hORFeome ORF cloned EcoRI/XhoI in pET-6xHis-SUMO; E. coli Rosetta; cobalt purified, His-SUMO tag cleaved with Ulp1, FPLC; dimer in solution
The experiment in a line: NADPH-dependent SSA reduction, absorbance plate assay. The following applies: 0.5 mM NADPH, sodium phosphate pH 8.0, 37 °C; SSA 0.50-3.5 mM; only kcat/KM printed. It is filed as biochemical.

T1 sequence (O43488 whole entry): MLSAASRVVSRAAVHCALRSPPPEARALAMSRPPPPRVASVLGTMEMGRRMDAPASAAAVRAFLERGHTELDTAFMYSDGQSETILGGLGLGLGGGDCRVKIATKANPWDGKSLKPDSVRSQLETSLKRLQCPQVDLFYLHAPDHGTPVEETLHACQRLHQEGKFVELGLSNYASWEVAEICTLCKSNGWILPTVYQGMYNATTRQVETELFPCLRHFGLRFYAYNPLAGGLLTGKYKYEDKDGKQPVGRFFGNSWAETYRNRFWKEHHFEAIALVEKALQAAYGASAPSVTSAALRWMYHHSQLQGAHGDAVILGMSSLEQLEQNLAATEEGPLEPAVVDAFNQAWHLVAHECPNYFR

Regarding `O=CCCC(=O)O` [succinic semialdehyde], the “NADPH-dependent SSA reduction, absorbance plate assay” value was “we purified recombinant WT and mutant AKR7A2 protein to test for changes in NADPH-dependent turnover”.
